We go through 2 compounds from patent US20240100045A1, “EMULSION COMPOSITION AND USES THEREOF IN THE PREVENTION AND/OR TREATMENT OF SKIN DAMAGE CAUSED BY RADIATION” (TARIAN PHARMA, priority 2021, published 2024).

Data set [1] relates to alpha2-adrenergic receptors. The settings on record: alpha2 vs alpha1; cited from earlier work.
For data set [2] the following is noted: for saturation in the aqueous solvent phase of the primary formulation: prior to application. How it is done: (§1) […] were prepared by adding an excess of drug substance to various solvents and storing the samples in sealed containers for 24 hours at room temperature with continuous stirring.
(§2) The majority of samples were stirred by a magnetic stirrer; however, in the case of viscous samples (e.g for pure glycerine), samples were stirred using a rotary mixer. The speed of the rotary mixer was adjusted to ensure proper mixing of the sample and this generally involved slower rotation speeds.
(§3) The chromatographic conditions are described below:• Column: Sunfire C18 150 mm×4.6 mm, 3.5 μm • Column temperature: 40° C. • Injection volume: […] • Flow rate: 0.8m1/minute • UV Detection: 246 nm
Saturated solutions were prepared, incubated and measured as described in Example 1.

The conditions of data set [3]: conditions not specified, cited from earlier work.
How the values of data set [4] were obtained:
as §1, §2, §3

Read-outs that look alike come from different tables or passages of the source. Marks after values point to notes of the source that are not given here.

As to `Brc1c(NC2=NCCN2)ccc2nccnc12` [Brimonidine], in data set [1], the “selectivity for alpha2-adrenergic receptors over alpha1-adrenergic receptors” value is 1,000 times.
brimonidine tartrate: in data set [2] (PG/PEG-400/GLY/PVP (20:10:5:1) vs PG/PEG400/GLY/PVP/water (20:10:5:1:40)), the “active agent solubilised by the non-volatile mixture compared to the aqueous mixture” value is on record as “approximately 22%”. In addition, the “saturation in the aqueous solvent phase of the primary formulation” value in data set [2] (concentration of 1% brimonidine tartrate) is reported as “around 30%”; in data set [2] (concentration of 1.5% brimonidine tartrate) it was about 50%. In addition, the “Max Solubility % (w/w)” value in data set [2] (in PG/PEG-400 (20:10)) is on record as 0.45 % (w/w); in data set [2] (in PG/PEG-400/GLY (20:10:5)), 0.66 % (w/w); in data set [2] (in PG/PEG-400/GLY/(20:10:5:1)), 0.72 % (w/w); in data set [2] (in PG/PEG-400/GLY/PVP/Water (20:10:5:1:40)) it was 3.3 % (w/w); in data set [2] (in PG/PEG-400/PVP (20:10:1)), 0.45 % (w/w); in data set [3] (in Propylene glycol, literature value (Product Monograph ALPHAGAN)) it was ~0.1**** % (w/w). Moreover, the “Max Solubility % (w/w)” value in data set [3] (in WATER, literature value) is recorded as 3.4*** % (w/w); in data set [4] (in ARLASOLVE DMI, 24 hours at room temperature) it was 0.01 % (w/w); in data set [4] (in GLUCAM E10, peak degradation observed after reinjection T + 72 hours), 0.72* % (w/w); in data set [4] (in GLUCAM E20, peak degradation observed after reinjection T + 72 hours), 0.88* % (w/w); in data set [4] (in Glycerine (GLY, 20 ml scintillation bottle)), 1.61 % (w/w); in data set [4] (in Hexylene Glycol) it was 0.01 % (w/w). Moreover, the “Max Solubility % (w/w)” value was 0.06 % (w/w) in data set [4] (in Na Pyrrolidone Carboxylate (Ajidew L50)); 0.10 % (w/w) in data set [4] (in PEG-400); 0.01** % (w/w) in data set [4] (in Propylene Carbonate, peak degradation observed after reinjection T + 24 hours); 0.56 % (w/w) in data set [4] (in Propylene glycol, measured value); 0.05 % (w/w) in data set [4] (in TRANSCUTOL, 24 hours at room temperature); 6.40 % (w/w) in data set [4] (in WATER, measured value). In addition, in data set [4] (glycerine vs propylene glycol), the “solubility in glycerine relative to propylene glycol” value is recorded as “twice”. The “solubility capacity of PG relative to glycerine” value in data set [4] (propylene glycol vs glycerine) is given as 50%.
